The results in this text go back to ChEMBL document CHEMBL3421536, “Identification of 4-(4-nitro-2-phenethoxyphenyl)pyridine as a promising new lead for discovering inhibitors of both human and rat 11β-Hydroxylase” (Eur J Med Chem, 2015).

Series [1] in a line: Retention time of the compound by HPLC analysis. In kind it is physicochemical.
For another series, the target named is T1, Aromatase (Homo sapiens, UniProt P11511).
T1 sequence (P11511 whole entry): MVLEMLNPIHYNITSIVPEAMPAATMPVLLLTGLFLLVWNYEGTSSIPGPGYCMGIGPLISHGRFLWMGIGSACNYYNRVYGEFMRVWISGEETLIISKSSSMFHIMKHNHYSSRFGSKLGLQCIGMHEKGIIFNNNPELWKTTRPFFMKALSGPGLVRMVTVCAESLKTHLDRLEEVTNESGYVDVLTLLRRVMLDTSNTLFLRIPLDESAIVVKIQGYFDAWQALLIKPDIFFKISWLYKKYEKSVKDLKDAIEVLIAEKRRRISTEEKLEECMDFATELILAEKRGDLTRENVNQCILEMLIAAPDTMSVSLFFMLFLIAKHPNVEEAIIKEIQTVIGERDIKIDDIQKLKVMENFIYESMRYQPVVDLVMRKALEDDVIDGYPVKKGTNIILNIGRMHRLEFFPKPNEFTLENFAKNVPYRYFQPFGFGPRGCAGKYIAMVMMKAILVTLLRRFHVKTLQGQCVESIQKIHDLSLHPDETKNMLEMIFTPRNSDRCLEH
The experiment in a line: Inhibition of human CYP19 expressed in hamster fibroblast using 500 nM [1beta-3H] androstenedione as substrate by HPLC analysis.

Series [2] has as its target T2, Cytochrome P450 11B1, mitochondrial (Rattus norvegicus, UniProt P15393).
T2 sequence (P15393 whole entry): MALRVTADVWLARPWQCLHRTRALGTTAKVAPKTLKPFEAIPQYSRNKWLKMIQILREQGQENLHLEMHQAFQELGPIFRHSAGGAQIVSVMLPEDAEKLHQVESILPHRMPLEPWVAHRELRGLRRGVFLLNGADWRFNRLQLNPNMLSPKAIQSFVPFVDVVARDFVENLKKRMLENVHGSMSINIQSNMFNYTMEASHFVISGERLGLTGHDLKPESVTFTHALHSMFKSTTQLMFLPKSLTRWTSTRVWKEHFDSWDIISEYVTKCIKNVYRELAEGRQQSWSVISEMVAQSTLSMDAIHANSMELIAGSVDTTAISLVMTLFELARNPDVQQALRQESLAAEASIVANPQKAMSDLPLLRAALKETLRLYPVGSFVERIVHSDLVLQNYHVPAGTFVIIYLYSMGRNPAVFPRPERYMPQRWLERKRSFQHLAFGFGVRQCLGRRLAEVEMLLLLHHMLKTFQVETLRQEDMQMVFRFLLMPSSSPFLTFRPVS
The experiment in a line: Inhibition of rat CYP11B1 expressed in hamster fibroblast using 500 nM [3H]-11-deoxycorticosterone as substrate after 7 hrs by HPLC analysis.

The species named for the next series is Homo sapiens. Briefly: Selectivity index, ratio of IC50 for human CYP11B2 to IC50 for human CYP11B1.
The target in series [3] is T3, Cytochrome P450 11B2, mitochondrial (Homo sapiens, UniProt P19099).
T3 sequence (P19099 whole entry): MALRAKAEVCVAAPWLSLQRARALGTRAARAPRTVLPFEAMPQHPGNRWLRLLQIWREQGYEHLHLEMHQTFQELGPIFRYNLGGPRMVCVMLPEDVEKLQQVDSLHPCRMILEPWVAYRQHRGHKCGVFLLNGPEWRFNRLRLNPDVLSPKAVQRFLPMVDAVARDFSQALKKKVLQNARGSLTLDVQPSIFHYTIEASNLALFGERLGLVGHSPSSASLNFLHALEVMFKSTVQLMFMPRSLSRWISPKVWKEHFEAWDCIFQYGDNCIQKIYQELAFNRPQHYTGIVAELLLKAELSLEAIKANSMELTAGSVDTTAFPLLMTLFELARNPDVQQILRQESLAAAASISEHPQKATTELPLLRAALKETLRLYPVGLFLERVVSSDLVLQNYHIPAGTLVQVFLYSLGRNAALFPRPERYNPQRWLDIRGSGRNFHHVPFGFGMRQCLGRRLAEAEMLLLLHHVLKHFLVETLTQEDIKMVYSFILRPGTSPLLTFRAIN
The experiment in a line: Inhibition of human CYP11B2 expressed in hamster fibroblast using 100 nM [3H]-11-deoxycorticosterone as substrate after 45 mins by HPLC analysis.

The target of series [4] is T4, Cytochrome P450 11B1, mitochondrial (Homo sapiens, UniProt P15538).
T4 sequence (P15538 whole entry): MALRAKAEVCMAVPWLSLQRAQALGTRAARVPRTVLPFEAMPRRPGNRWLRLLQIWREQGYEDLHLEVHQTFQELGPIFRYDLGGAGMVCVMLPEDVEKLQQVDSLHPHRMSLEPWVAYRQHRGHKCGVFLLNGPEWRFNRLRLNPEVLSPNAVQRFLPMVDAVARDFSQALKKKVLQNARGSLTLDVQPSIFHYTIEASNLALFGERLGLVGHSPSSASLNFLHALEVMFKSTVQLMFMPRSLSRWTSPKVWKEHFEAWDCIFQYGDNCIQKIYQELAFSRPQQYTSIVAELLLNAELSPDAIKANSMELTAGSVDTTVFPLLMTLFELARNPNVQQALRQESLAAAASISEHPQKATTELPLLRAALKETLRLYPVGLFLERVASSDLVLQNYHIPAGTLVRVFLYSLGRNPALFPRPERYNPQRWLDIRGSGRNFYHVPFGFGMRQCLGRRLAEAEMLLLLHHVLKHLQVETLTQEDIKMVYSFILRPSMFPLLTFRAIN
Briefly: Inhibition of human CYP11B1 expressed in hamster fibroblast using 100 nM [3H]-11-deoxycorticosterone as substrate after 25 mins by HPLC analysis.

On to `O=[N+]([O-])c1ccc(Cc2ccncc2)c(OCCc2ccccc2)c1`, for which the Retention_time in series [1] is listed as 9.55 min. For the same compound, the 50% inhibitory concentration (IC50) against Aromatase is 0.157 µM; in series [2], 2.85 µM; in series [3], 0.016 µM; in series [4], 0.006 µM. The Selectivity Index in the series listed under Homo sapiens stood at 2.7.
Take `N#Cc1ccc(-c2ccncc2)c(OCCc2ccccc2)c1`: the Retention_time in series [1] is 8.71 min. Besides, the concentration for half-maximal inhibition (IC50) against Aromatase was found to be 1.55 µM; in series [2] it was 0.441 µM; in series [3], 0.023 µM; in series [4], 0.012 µM. The Selectivity Index in the series filed under Homo sapiens turned out to be 1.9.

The IC50 is the concentration needed to halve the response being measured. A low value points to inhibition by little substance.
